The record followed here is patent US20220274997A1, “PIM KINASE INHIBITOR COMPOSITIONS AND USES THEREOF” (Snap Bio, Inc., priority 2019, published 2022).

This assay relates to DU-145. Kind of assay: CellTiter-Glo cancer cell growth inhibition, DU-145. Type of assay: cell-based. The following applies: Homo sapiens, DU-145, 72 h. The text has this: The CellTiter-Glo® Luminescent Cell Viability Assay is a sensitive homogeneous method to determine the number of viable cells in culture, Detection is based on using the luciferase reaction to measure the amount of ATP from viable cells. The amount of ATP in cells correlates with cell viability. Within minutes after a loss of membrane integrity, cells lose the ability to synthesize ATP, and endogenous ATPases destroy any remaining ATP; thus the levels of ATP fall precipitously. The CellTiter-Glo® Reagent does three things upon addition to cells. It lyses cell membranes to release ATP; it inhibits endogenous ATPases, and it provides luciferin, luciferase and other reagents necessary to measure ATP using a bioluminescent reaction. The unique properties of a proprietary stable luciferase. There is a linear relationship (r2=0.99) between the luminescent signal and the number of cells from 0 to 50.000 cells per well.
All assays were performed by Reaction Biology Corporation (Malvern, Pa.) or ChemDiv, Inc. (San Diego, Calif.). […]
Conditions: 37° C., air 95%; HEPA-filtered carbon dioxide (CO2) 5%, humidified atmosphere. • Cells were grown in 175 cm^2 flasks to 80-90% of confluency. • Culture media was aspirated and cell layer was briefly rinsed with Versen solution to remove all traces of serum. • 2 mL of accutase was added to cells. • Flasks were retuned to incubator for 5 min to allow cell detachment. • Add 6.0 mL of complete growth medium. • Single cell suspension was created by gently pipetting. • Cells were counted using a Hematocytometer and a suspension with the desired cell concentration was prepared. […]
Stock solutions ([…]) were diluted with cell culture media to produce 500× serial dilutions and […] of final compound dilutions were added to cells in assay plates to screen a series of 10 doses starting at 100 mM. […] Luminescence intensity was measured for each well using the Tecan M 1000 microplate reader after 5 min of incubation with CellTiter-Glo Reagent. The number of viable cells in culture was determined based on quantitation of the ATP present in each culture well. […]

`CN[C@@H]1C[C@H]2O[C@@](C)([C@@H]1OC)n1c3ccccc3c3c4c(c5c6ccccc6n2c5c31)C(=O)NC4` [Staurosporine, reference compound] registered an EC50 of 4.8 nM.
